{"source": "patent US5231216A", "about": "“Trans-2-acylaminocyclohexyloxyacyldipeptides in the form of mixtures of diastereoisomers thereof and in the form of pure diasteredisomers, process for the preparation thereof and pharmaceutical compositions containing the same” (Univerza Edvarda Kardelja v Ljubljana, priority 1990, dated 1993)", "key": {"[1]": {"assay": "Pyrogenous activity according to USP XXII", "type": "in vivo", "conditions": "method of USP XXII", "experimental": "The pyrogenous activity was determined according to the method of USP XXII."}, "[2]": {"assay": "Toxicity, average lethal dose (LD50)", "type": "in vivo", "conditions": "i.v. application, male mice", "experimental": "The average lethal dose (LD50) at i.v. application of the compound 1 in male mice was >500 mg/kg."}, "[3]": {"system": "peritoneal macrophages", "assay": "Activation of peritoneal macrophages (ferricytochrome C reduction) with additional in vitro PMA stimulation", "type": "in vivo, female HAN-NmRI strain mice", "conditions": "for Difference in absorbancies of the test sample and of the blank per mg of cell protein, x ± s.e.m (n): control 1004 ± 38", "experimental": "(§1) Immunological studies were performed on female HAN-NmRI strain mice of 3-4 weeks, weighing from 17-20 g.\n(§2) In tests 1.1 to 1.5, the animals were first administered the Brewer's thioglycolate medium by i.p. injection, which was followed after 6 hours by the injection of 0.5 ml of a solution containing 25 μg, 2.5 μg and 0.25 μg respectively of N-acetyl-muramyl-L-alanyl-D-isoglutamine (muramyl dipeptide, MDP) or of N-[trans-2-(2'-acetylaminocyclohexyloxy)acetyl]-L-alanyl-D-glutaminic acid (compound 1, Example 12B). Equal doses were administered to the animals on days 2 and 3. On day 4 the animals were sacrificed and the spleen and the peritoneal macrophages were isolated.\n(§3) The peritoneal cavity of the animals was rinsed with 4 ml of ice-cold RPMI 1640 medium. The cytolysis of erythrocytes was effected with 0.2% NaCl. The remaining cells were washed twice in a cooled centrifuge at 4° and 1500 rpm for 5 minutes with ice-cold RPMI 1640 medium. The cells were re-suspended and the concentration was adjusted to 1.5×10^6 /ml. The cell suspension was distributed among the flat bottom wells of a microtitration palte (T grade, Nunc, Denmark). After incubating for 2 hours at 37° C., 5% CO2 and 95% humidity, the wells were rinsed with warm RPMI 1640 medium and the adhering macrophages were used for testing.\n(§4) After incubating for 90 minutes at 37° C., 5% CO2 and 95% humidity, the absorbance was measured at the wavelength of 570 nm.\n(§5) The results are shown in Table 2 as the difference in the absorbance of the test sample and of the blank, calculated for 1 mg of cell protein."}, "[4]": {"system": "peritoneal macrophages", "assay": "Determination of the number of macrophages in peritoneal cavity washings", "type": "in vivo, female HAN-NmRI strain mice", "conditions": "daily doses 25, 2.5 and 0.25 μg on 3 days; after Brewer's thioglycolate stimulation", "experimental": "as §1, §2\nThe number of macrophages in the peritoneal cavity washings was determined three days after the stimulation with Brewer's thioglycolate medium. The cells were suspended in ice-cold RPMI 1640 medium, to which trypan blue was added, and counted in Neubauer's chamber."}, "[5]": {"system": "Fibrosarcoma SA-1", "conditions": "for Time needed for the tumour growth to the volume of 150 mm^3, Number of days (± SD) / Growth delay (± SD): 5 doses; for Time needed for the tumour growth to the volume of 150 mm^3, Number of days (± SD): control 5.5 ± 0.8", "quoted_text": "The studies were performed on A/J strain mice (Institute Rudjer Boskovic, Zagreb, Yugoslavia) of 8 to 10 weeks. All animals used in the same experiment were of the same sex and age.\nFibrosarcoma SA-1 was used as the experimental tumour model. Tumorous cells were obtained from the ascitic form of the SA-1 tumour of the syngeneic A/J mouse. They were implanted into animals dorsilaterally by s.c. injection of 5×10^5 tumour cells. The testing was started after the tumours had grown to a volume of 35 mm^3. The test substance was injected i.p. on five consecutive days in a dose of 2.5 or 25 μg. The growth of the tumours was monitored by measuring the diameters and the thickness of the tumours. The tumour volumes were calculated according to the formula 0.523×a×b×c (a, b and c being the tumour diameters).\nThe delay in the growth of each individual tumour was obtained by deducting the relevant time of growth of the tumour in the control group from the time needed for the growth of the tumour to reach the volume of 150 mm^3."}, "[6]": {"system": "splenic lymphocytes T", "assay": "Determination of the number of lymphocytes T (splenic, fluorescence microscopy)", "type": "in vivo, female HAN-NmRI strain mice", "conditions": "daily doses 25, 2.5 and 0.25 μg on 3 days; spleen isolated on day 4", "experimental": "as §1, §2\n(§6) To the isolated splenic lymphocytes there were added fluorescein isothiocyanate labelled antimouse antibodies (for the determination of lymphocytes B) and anti-Thy 1 monoclonal antibodies (for the determination of lymphocytes T) respectively. After incubation and rinsing with RPMI 1640 medium (Gibco, Great Britain), the lymphocytes were counted by fluorescence microscopy."}, "[7]": {"system": "lymphocytes B", "assay": "Determination of haemolytic plaques for the assessment of the maturation of lymphocytes B", "type": "in vivo, female HAN-NmRI strain mice", "conditions": "evaluation summary", "experimental": "as §1\nA 1% suspension of sheep erythrocytes (Institute of Microbiology, Faculty of Medicine, Ljubljana, Yugoslavia) in physiological saline was used for the immunisation. First, individual mice were administered 0.2 ml of this suspension by i.p. injection, followed next day by 0.1 ml (1 μg/mouse) of the test substance. The immunisation was completed on the fifth day after the administration of sheep erythrocytes and the mice were sacrificed.\nTheir spleens were removed and homogenized in Parker 199 Medium with added aminoacids, streptomycin and sodium carbonate (Torlak, Beograd, Yugoslavia). The lymphocytes were separated on the Ficol Separating Medium (Pharmacia, Uppsala, Sweden). After repeated rinsing with Parker 199 Medium, the cells were resuspended in RPMI 1640 nutrient medium with added 10% of foetal calf serum and streptomycin. To 50 μl of the cell suspension, 450 μl of trypan blue were added and the cells were counted in Neubauer's chamber. The number of lymphocytes per ml of the cell suspension was calculated. […] After the completion of the incubation, the plaques were counted under microscope.\nThe number of plaques per 1×10^6 cells was calculated according to the following equations: [formula]"}, "[8]": {"system": "peritoneal macrophages", "assay": "Activation of peritoneal macrophages (ferricytochrome C reduction) without additional PMA stimulation", "type": "in vivo, female HAN-NmRI strain mice", "conditions": "for Difference in absorbancies of the test sample and of the blank per mg of cell protein, x ± s.e.m (n): control 275 ± 26", "experimental": "as §1, §2, §3, §4, §5"}, "[9]": {"system": "splenic lymphocytes B", "assay": "Determination of the number of lymphocytes B (splenic, fluorescence microscopy)", "type": "in vivo, female HAN-NmRI strain mice", "conditions": "daily doses 25, 2.5 and 0.25 μg on 3 days; spleen isolated on day 4", "experimental": "as §1, §2, §6"}, "[10]": {"system": "splenic lymphocytes (lymphocytes T) stimulated with concanavalin A", "assay": "Blast transformation of lymphocytes stimulated in vitro with concanavalin A after in vivo treatment", "design": "species or system female HAN-NmRI strain mice", "conditions": "for Amount of active thymidine incoporated in lymphocyte DNA (cpm), x ± s.e.m (n): control 10130 ± 476", "experimental": "as §1, §2\nIsolated splenic lymphocytes were prepared in a concentration of 1×10^6 /ml in the RPMI 1640 medium, to which there were added 10% of foetal calf serum (FCS) (Sera-Lab, Great Britain), 1 ml of 200 mM L-glutamine solution and 1 ml of an antibiotic solution (100 U/ml of penicillin and 100 μg/ml of streptomycin) for 100 ml of complete medium. To each flat bottom well of a microtitration plate (T grade, Nunc, Denmark) 100 μl of the cell suspension were distributed. The cells were stimulated in vitro by adding concanavalin A (con A)(Pharmacia, Sweden) at respective concentrations of 16, 8, and 4 μg/ml. Control lymphocyte cultures were grown in basal medium only. The cells were then incubated at 37° C., 5% CO2 and 95% humidity for 2 days, followed by the addition of tritium labelled thymidine. After 16 hours the samples were prepared for the measurement in a β-counter. The results were expressed as incorporation indexes with respect to the control group of the animals."}, "[11]": {"conditions": "daily dose 0.25 μg for 3 consecutive days"}, "[12]": {"conditions": "daily dose 2.5 μg for 3 consecutive days"}, "[13]": {"conditions": "daily dose 25 μg for 3 consecutive days"}}, "note": "Read-outs that look alike come from different tables or passages of the source."}
{"smiles": "CC(=O)N[C@@H]1CCCC[C@H]1OCC(=O)N[C@@H](C)C(=O)N[C@H](CCC(=O)O)C(=O)O", "note": "(relative stereo) [Compound 1, N-[trans-2-(2'-acetylaminocyclohexyloxy)acetyl]-L-alanyl-D-glutaminic acid]", "values": [{"measurement": "pyrogenous activity", "setting": "[1]", "value": "did not show any pyrogenous activity"}, {"measurement": "average lethal dose (LD50)", "setting": "[2]", "value": "> 500", "unit": "mg/kg"}, {"measurement": "Difference in absorbancies of the test sample and of the blank per mg of cell protein, x ± s.e.m (n)", "setting": "[3]; [11]", "value": "1298 ± 334"}, {"measurement": "Difference in absorbancies of the test sample and of the blank per mg of cell protein, x ± s.e.m (n)", "setting": "[3]; [12]", "value": "1494 ± 199"}, {"measurement": "Difference in absorbancies of the test sample and of the blank per mg of cell protein, x ± s.e.m (n)", "setting": "[3]; [13]", "value": "1709 ± 374"}, {"measurement": "increase of macrophage activity", "setting": "[3]; dose 2.5 μg, p<0.05", "value": 50, "unit": "%"}, {"measurement": "difference in macrophage activation between muramyl dipeptide and compound 1", "setting": "[3]; dose 25 μg", "value": "no statistically significant different"}, {"measurement": "increase of macrophage activity", "setting": "[3]; dose 25 μg", "value": 70, "unit": "%"}, {"measurement": "number of peritoneal macrophages", "setting": "[4]", "value": "not altered to a statistically significant extent"}, {"measurement": "Time needed for the tumour growth to the volume of 150 mm^3, Number of days (± SD)", "setting": "[5]; 2.5 μg daily i.p.", "value": "6.4 ± 0.9", "unit": "days"}, {"measurement": "Growth delay (± SD)", "setting": "[5]; 2.5 μg daily i.p., p<0.2 compared with control", "value": "0.9 ± 0.4"}, {"measurement": "Time needed for the tumour growth to the volume of 150 mm^3, Number of days (± SD)", "setting": "[5]; 25.0 μg daily i.p.", "value": "7.3 ± 1.3", "unit": "days"}, {"measurement": "Growth delay (± SD)", "setting": "[5]; 25.0 μg daily i.p., p<0.002 compared with control", "value": "1.8 ± 0.4"}, {"measurement": "difference in antitumour activity between the higher and the lower dose", "setting": "[5]; 25 μg versus 2.5 μg", "value": "no statistically significant difference in activity between the higher and the lower dose"}, {"measurement": "delay in tumour growth in combination with tumour necrosis factor", "setting": "[5]; compound 1 2.5 μg combined with recombinant tumour necrosis factor α (5×10^5 U)", "value": "increased delay in tumour growth"}, {"measurement": "antitumour activity in comparison to the control", "setting": "[5]; dose 25 μg, p<0.002", "value": "moderate and statistically significant"}, {"measurement": "number of splenic lymphocytes T", "setting": "[6]", "value": "Neither the number of splenic lymphocites B nor of lymphocytes T was altered to a statistically significant extent"}, {"measurement": "maturation of lymphocytes B to plasma cells", "setting": "[7]", "value": "enhances the muturation of lymphocytes B to plasma cells"}, {"measurement": "Difference in absorbancies of the test sample and of the blank per mg of cell protein, x ± s.e.m (n)", "setting": "[8]; daily dose 0.25 μg", "value": "237 ± 94"}, {"measurement": "Difference in absorbancies of the test sample and of the blank per mg of cell protein, x ± s.e.m (n)", "setting": "[8]; daily dose 2.5 μg", "value": "431 ± 85"}, {"measurement": "Difference in absorbancies of the test sample and of the blank per mg of cell protein, x ± s.e.m (n)", "setting": "[8]; daily dose 25 μg", "value": "489 ± 97"}, {"measurement": "increase of macrophage activity", "setting": "[8]; dose 2.5 μg, p<0.06", "value": 55, "unit": "%"}, {"measurement": "difference in macrophage activation between muramyl dipeptide and compound 1", "setting": "[8]; dose 25 μg", "value": "no statistically significant different"}, {"measurement": "increase of macrophage activity", "setting": "[8]; dose 25 μg, p<0.05", "value": 70, "unit": "%"}, {"measurement": "number of splenic lymphocytes B", "setting": "[9]", "value": "Neither the number of splenic lymphocites B nor of lymphocytes T was altered to a statistically significant extent"}, {"measurement": "Amount of active thymidine incoporated in lymphocyte DNA (cpm), x ± s.e.m (n)", "setting": "[10]; [11]", "value": "10780 ± 2680", "unit": "cpm"}, {"measurement": "Amount of active thymidine incoporated in lymphocyte DNA (cpm), x ± s.e.m (n)", "setting": "[10]; [12]", "value": "16830 ± 6610", "unit": "cpm"}, {"measurement": "Amount of active thymidine incoporated in lymphocyte DNA (cpm), x ± s.e.m (n)", "setting": "[10]; [13]", "value": "25990 ± 7850", "unit": "cpm"}, {"measurement": "immunomodulatory effect in lymphocytes T compared with MDP", "setting": "[10]; dose 25 μg", "value": "statistically greater (p<0.05) immunomodulatory effect"}, {"measurement": "increase of the blastic activity of lymphocytes T", "setting": "[10]; dose 25 μg, p<0.05, versus control", "value": "about 150%"}]}
